Data reported in PubChem BioAssay (NCI).
“And” between values parts separate entries of the source, which are not always exact repeats. Identical values can stand only once.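 Cultured in 96-well plates, cells were exposed to test compound for 48 hours across five concentrations. The concentration for 50% growth inhibition is given as GI50. The concentration for full growth arrest is given as TGI.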

Assays:
Test in all cases: NCI anticancer screen, dose series, 48 h
HCT-15 colon = system: HCT-15 colon
DMS 114 small cell lung = system: DMS 114 small cell lung
HS 578T breast = system: HS 578T breast
MDA-MB-231 breast = system: MDA-MB-231 breast
SF-268 CNS = system: SF-268 CNS
HL-60(TB) leukemia = system: HL-60(TB) leukemia
LXFL 529 NSCLC = system: LXFL 529 NSCLC
UO-31 renal = system: UO-31 renal
PC-3 prostate = system: PC-3 prostate
T-47D breast = system: T-47D breast

Row | Compound | GI50 (HCT-15 colon) | TGI (HCT-15 colon) | GI50 (DMS 114 small cell lung) [µM] | TGI (DMS 114 small cell lung) | TGI (HS 578T breast) [µM] | TGI (MDA-MB-231 breast) [µM] | GI50 (SF-268 CNS) | TGI (SF-268 CNS) | GI50 (HL-60(TB) leukemia) | TGI (HL-60(TB) leukemia) | GI50 (LXFL 529 NSCLC) [µM] | TGI (LXFL 529 NSCLC) | GI50 (UO-31 renal) | TGI (UO-31 renal) | TGI (PC-3 prostate) [µM] | TGI (T-47D breast) [µM]
1 | CCOC(=O)NC1=C(N2CC2)C(=O)C(NC(=O)OCC)=C(N2CC2)C1=O | 11.4 µM and 10.2 µM | 25 µM and 42.9 µM and 44.2 µM | 3.49 | 7.85 µM and 7.33 µM | 24.7 | 15.3 | 5.55 µM and 4.88 µM | 25 µM and 20.7 µM and 26.9 µM | 1.85 µM and 0.403 µM | 11 µM and 4 µM and 1.49 µM | 4.34 | 15 µM and 9.51 µM | 11.1 µM and 4 µM | 25 µM and 21.7 µM and 22.4 µM | 16.2 | 16.8
2 | Cc1ccc(C(=O)N2CCN(C(=O)c3ccc(C)cc3)c3ccccc32)cc1 | – | > 100 µM | – | 18 µM | 29.8 | > 100 | – | > 100 µM | – | 4.21 µM | – | > 100 µM | – | > 56.6 µM | > 100 | > 100
